The source of these data is article PMC4297292 (Cancer Cell, 2015).

For one data set, the target named is LCK (Homo sapiens, UniProt P06239). Description: Z'-LYTE kinase assay. The format is biochemical.
For data set [1], the system named is ERK activity in SK-Mel 23 cells. As to the kind of experiment: pERK immunoblot. The format is cell-based. As to conditions: 1 μM; 4 hr.
In data set [2] the test system is NRAS mutant D04 xenograft. As to the kind of experiment: Xenograft growth. The format is in vivo. As to conditions: 20 mg/kg oral daily; nude mice.
Another data set concerns the target SRC (Homo sapiens, UniProt P12931). As to the kind of experiment: Z'-LYTE kinase assay. The format is biochemical. As to conditions: IC50 SRC, Table 1.
A further data set concerns BRAF^V600E A375 cells. As to the kind of experiment: Cell proliferation assay. As to conditions: CellTiter Glo. The class given is cell-based. (In ATP-based viability assays light output follows the ATP content of the culture.)
For data set [3], the system named is melanoma and colorectal cancer cell lines that are mutant for BRAF. Description: Cell growth inhibition. The class given is cell-based. As to conditions: Figures 2A and 2B.
Data set [4] relates to MEK and ERK in WM266.4 cells (BRAF mutant). As to the kind of experiment: pMEK/pERK immunoblot. The format is cell-based. As to conditions: 24 hr. On the technique in general: A western blot detects proteins with antibodies after separation by electrophoresis.
The test system of data set [5] is cell lines from patient #5 tumor. As to the kind of experiment: Cell proliferation assay. The format is cell-based. As to conditions: CellTiter Glo.
For data set [6], the system named is A375/R xenograft (PLX4720-resistant A375). As to the kind of experiment: Xenograft growth. The format is in vivo, nude mice. As to conditions: 20 mg/kg oral daily.
The next data set concerns NRAS mutant D04 cells. As to the kind of experiment: Cell proliferation assay. The class given is cell-based. As to conditions: CellTiter Glo.
Data set [7] relates to panel of 63 protein kinases. As to the kind of experiment: Efficacy against a panel of protein kinases. The class given is biochemical. As to conditions: 1 μM, percent activity compared to DMSO.
In data set [8] the test system is ERK and SRC in patient #3 PDX. Description: pERK/pSFK immunoblot in PDX. The class given is in vivo, mice. As to conditions: PLX4720 45 mg/kg, CCT compounds 20 mg/kg daily gavage.
The subject of a further data set is PDX from patient #5. Description: PDX growth. The format is in vivo, NSG mice.
Data set [9] can be described thus: Single and repeat dose tolerability / oral toxicity. The format is in vivo, CD-1 mice.
Data set [10] deals with MEK in NRAS mutant D04 cells. As to the kind of experiment: pMEK/pERK immunoblot. The class given is cell-based. As to conditions: 24 hr.
The next data set has as its target MEK1 (Homo sapiens, UniProt Q02750). As to the kind of experiment: Z'-LYTE kinase assay. The class given is biochemical.
The test system of data set [11] is RAS mutant melanoma and colorectal cancer cells. As to the kind of experiment: Cell growth inhibition. The class given is cell-based. As to conditions: Figures 2A and 2B.
Data set [12] concerns caspase 3 and PARP cleavage in patient #2 cells. Description: PARP and caspase 3 immunoblot. The class given is cell-based. As to conditions: 1 μM; 4 hr.
Data set [13] relates to MEK, ERK and SRC/SFKs in patient #2 cells. Description: pMEK, pERK, pSFK immunoblot. The format is cell-based. As to conditions: 4 hr; for inhibition of MEK, ERK, and SRC: 1 μM.
The test system of data set [14] is BRAF^V600E A375 xenograft. Description: Xenograft growth. The format is in vivo, nude mice.
The test system of another data set is A375 cells. As to the kind of experiment: Colony formation. The format is cell-based. As to conditions: 0.5 μM; 20 days.
The next data set addresses COT (Homo sapiens, UniProt P41279). Description: Z'-LYTE kinase assay. The class given is biochemical.
The target in the next data set is CRAF (Homo sapiens, UniProt P04049, Y340D/Y341D). As to the kind of experiment: Z'-LYTE kinase assay. The format is biochemical. As to conditions: Table 1.
Sequence of CRAF (P04049 306-648 Y340D/Y341D limits assumed): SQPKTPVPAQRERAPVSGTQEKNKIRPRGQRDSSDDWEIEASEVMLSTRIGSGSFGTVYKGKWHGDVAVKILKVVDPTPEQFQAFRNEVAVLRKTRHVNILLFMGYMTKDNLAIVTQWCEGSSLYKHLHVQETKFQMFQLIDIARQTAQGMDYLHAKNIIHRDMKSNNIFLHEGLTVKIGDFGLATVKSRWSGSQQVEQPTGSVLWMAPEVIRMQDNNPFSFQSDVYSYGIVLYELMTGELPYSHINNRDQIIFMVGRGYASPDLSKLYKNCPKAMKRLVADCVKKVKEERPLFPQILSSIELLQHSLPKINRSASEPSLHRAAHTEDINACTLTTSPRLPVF
The nature of data set [15]: Pharmacokinetic studies, plasma, oral and intravenous dosing. The format is in vivo, Balb/c mice.
The next data set concerns patient #3 PDX. Description: PDX growth. The class given is in vivo, NSG mice. As to conditions: for PDX growth: PLX4720 45 mg/kg, CCT compounds 20 mg/kg daily gavage, NSG mice.
A further data set has as its system PDX from patient #13. Description: PDX growth. The format is in vivo, NSG mice. As to conditions: 20 mg/kg daily gavage; patient #13 PDX study.
Another data set relates to patient #4 PDX. Description: PDX growth. The format is in vivo, NSG mice. As to conditions: for PDX sensitivity: PLX4720 45 mg/kg, CCT compounds 20 mg/kg daily gavage, NSG mice.
Data set [16] relates to PLX4720-resistant PDX from patient #1. As to the kind of experiment: PDX growth. The class given is in vivo, NSG mice. As to conditions: PLX4720 45 mg/kg, CCT compounds 20 mg/kg daily gavage.
The test system of a further data set is patient #3 tumor cells. As to the kind of experiment: Cell proliferation assay. The class given is cell-based. As to conditions: CellTiter Glo.
The next data set relates to SK-Mel 23 cells. Description: Cell growth inhibition. The class given is cell-based. As to conditions: Figure 2A.
Data set [17] has as its system patient #2 cell xenograft. As to the kind of experiment: Xenograft growth. The class given is in vivo, nude mice. As to conditions: for xenograft growth: PLX4720 90 mg/kg, CCT compounds 20 mg/kg oral daily, nude mice.
In data set [18] the test system is cancer cells that are wild-type for BRAF and NRAS. Description: Cell growth inhibition. The format is cell-based. As to conditions: Figure 2A, in general.
In data set [19] the test system is patient #2 cells (vemurafenib-resistant melanoma). Description: Cell proliferation assay. The format is cell-based.
Setting [20] is: 25 mg/kg daily for 19 days, CD-1 mice.

Sequence of LCK (P06239 whole entry): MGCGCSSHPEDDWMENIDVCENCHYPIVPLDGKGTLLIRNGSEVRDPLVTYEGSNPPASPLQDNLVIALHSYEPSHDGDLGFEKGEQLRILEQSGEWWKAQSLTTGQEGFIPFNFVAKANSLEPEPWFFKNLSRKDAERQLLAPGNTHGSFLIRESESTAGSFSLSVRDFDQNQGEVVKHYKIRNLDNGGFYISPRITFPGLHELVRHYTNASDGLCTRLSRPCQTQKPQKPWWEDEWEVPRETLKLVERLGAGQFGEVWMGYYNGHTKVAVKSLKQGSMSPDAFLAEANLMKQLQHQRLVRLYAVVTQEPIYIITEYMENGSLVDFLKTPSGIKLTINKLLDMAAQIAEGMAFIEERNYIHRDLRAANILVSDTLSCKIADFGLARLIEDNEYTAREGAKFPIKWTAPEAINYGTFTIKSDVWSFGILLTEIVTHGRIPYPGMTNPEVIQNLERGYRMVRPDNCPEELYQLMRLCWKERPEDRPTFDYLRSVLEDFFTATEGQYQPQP
Sequence of SRC (P12931 whole entry): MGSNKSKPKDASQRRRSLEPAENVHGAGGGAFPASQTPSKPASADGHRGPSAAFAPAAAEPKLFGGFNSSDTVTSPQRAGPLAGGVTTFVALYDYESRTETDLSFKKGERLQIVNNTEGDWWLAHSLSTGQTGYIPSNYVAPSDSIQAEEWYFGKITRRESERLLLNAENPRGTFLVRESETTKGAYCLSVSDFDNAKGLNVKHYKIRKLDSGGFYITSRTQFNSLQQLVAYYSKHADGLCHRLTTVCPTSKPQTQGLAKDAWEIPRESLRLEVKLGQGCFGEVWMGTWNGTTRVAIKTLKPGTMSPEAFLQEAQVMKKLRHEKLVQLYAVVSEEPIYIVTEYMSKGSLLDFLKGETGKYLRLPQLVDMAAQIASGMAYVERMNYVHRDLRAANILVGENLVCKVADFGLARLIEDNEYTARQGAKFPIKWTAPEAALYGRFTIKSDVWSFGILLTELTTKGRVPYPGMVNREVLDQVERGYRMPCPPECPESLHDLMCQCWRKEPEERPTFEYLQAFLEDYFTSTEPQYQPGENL
Sequence of MEK1 (Q02750 whole entry): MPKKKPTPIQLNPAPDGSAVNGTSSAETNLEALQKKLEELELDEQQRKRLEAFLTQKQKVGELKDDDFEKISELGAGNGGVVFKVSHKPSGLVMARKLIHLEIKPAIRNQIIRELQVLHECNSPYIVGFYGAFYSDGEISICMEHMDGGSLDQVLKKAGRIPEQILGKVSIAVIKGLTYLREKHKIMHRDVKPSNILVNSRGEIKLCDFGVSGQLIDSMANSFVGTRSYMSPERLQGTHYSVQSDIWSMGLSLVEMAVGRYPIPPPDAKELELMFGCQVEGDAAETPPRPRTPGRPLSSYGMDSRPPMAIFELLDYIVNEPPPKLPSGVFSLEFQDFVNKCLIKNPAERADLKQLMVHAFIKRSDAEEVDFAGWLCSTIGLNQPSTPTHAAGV
Sequence of COT (P41279 whole entry): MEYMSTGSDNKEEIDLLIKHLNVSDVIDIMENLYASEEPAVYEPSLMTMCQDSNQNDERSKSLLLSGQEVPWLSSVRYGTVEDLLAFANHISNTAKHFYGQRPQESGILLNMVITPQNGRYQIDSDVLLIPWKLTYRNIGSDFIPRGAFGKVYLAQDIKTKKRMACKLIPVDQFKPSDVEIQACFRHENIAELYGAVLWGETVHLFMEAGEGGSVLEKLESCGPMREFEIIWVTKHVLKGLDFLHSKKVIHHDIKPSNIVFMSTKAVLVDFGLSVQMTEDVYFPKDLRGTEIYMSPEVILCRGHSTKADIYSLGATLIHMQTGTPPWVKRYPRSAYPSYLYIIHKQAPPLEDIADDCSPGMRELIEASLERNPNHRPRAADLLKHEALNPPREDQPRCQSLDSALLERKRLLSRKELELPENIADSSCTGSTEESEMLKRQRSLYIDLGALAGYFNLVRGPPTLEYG

`CC(C)(C)c1cc(NC(=O)Nc2ccc(Oc3ccnc4[nH]c(=O)cnc34)cc2F)n(-c2ccccc2)n1` [CCT196969]: the IC50 was 14 nM against LCK; 30 nM against SRC; more than 10000 nM at MEK1; more than 10000 nM against COT; 10 nM against CRAF. Also, the “ERK activity in SK-Mel 23 cells” value in data set [1] was “sensitive”. The xenograft growth result in [2] was “inhibit the growth”; in data set [6] (nude mice), “inhibit the growth”; in data set [14] (10 mg/kg/day, data not shown) it was “also effective”; in [14] (20 mg/kg/day oral, 7 days/week, nude mice), “tumor regression”; in data set [17], “complete inhibition”. Further, the “growth inhibition of BRAF mutant melanoma cells, compared with PLX4720” value in the data set on BRAF^V600E A375 cells is “more potently than PLX4720”. Besides, the “activity against BRAF mutant cell lines” value in data set [3] is on record as “active”. For the same compound, the “inhibition of MEK and ERK” value in data set [4] was “inhibit MEK and ERK”. Further, the “cell sensitivity compared with PLX4720” value in [5] is given as “more sensitive”. For the same compound, the body weight entry in data set [6] (A375/R xenograft study) is listed as “without causing any body weight loss”; in the data set on PDX from patient #5 (20 mg/kg daily gavage, patient #5 PDX study) it was “did not observe any loss in body weight”; in data set [9] (single dose 40 mg/kg, oral gavage, CD-1 mice), “no effect on body weight”; with patient #3 PDX (20 mg/kg daily gavage, patient #3 PDX study) it was “without causing body weight loss”; in the data set on PDX from patient #13 it was “no body weight loss was observed”; with patient #4 PDX (20 mg/kg daily gavage, patient #4 PDX study) it was “do not cause body weight loss”. Besides, in data set [17] (20 mg/kg oral daily, patient #2 xenograft study), the body weight entry is “without causing any body weight loss”. For the same compound, the “NRAS mutant cell growth inhibition, compared with PLX4720” value in the data set on NRAS mutant D04 cells is on record as “more efficiently than does PLX4720”. Moreover, the “kinases inhibited in a panel of protein kinases” value in [7] was “only inhibit SRC, LCK, and the p38 mitogen-activated protein kinases (MAPKs)”. Further, the “inhibition of ERK and SRC in PDX” value in data set [8] is “inhibit ERK and SRC”. Besides, in the data set with PDX from patient #5 (PLX4720 45 mg/kg, CCT compounds 20 mg/kg daily gavage, NSG mice), the “PDX sensitivity compared with PLX4720” value is given as “more sensitive”. Moreover, in data set [9] (20 mg/kg daily × 24 days, CD-1 mice), the “clinical signs and body weight” value is listed as “no clinical signs or body weight loss”. In data set [9] (setting [20]), the “body weight and food intake” value is recorded as “did not show any body weight loss or reduction in food intake”. The clinical signs entry in data set [9] (setting [20]) was “tachypnoea with decreased activity and excitation”; in data set [9] (single dose 40 mg/kg, oral gavage, CD-1 mice, 1 hr after dosing), “slight, transient tachypnoea”. Moreover, in data set [9] (setting [20]), the mortality entry is given as “did not observe any mortality”. The “microscopical examination of tissues” value in data set [9] (25 mg/kg daily for 19 days, end of the study) is recorded as “did not identify any treatment-related changes”. The weight loss entry in data set [9] (30 mg/kg for 4 days, oral gavage) is recorded as “do not cause significant weight loss”. Further, in data set [9] (single dose 20 mg/kg, oral gavage, CD-1 mice), the “clinical signs / adverse effects” value is “no observed adverse effects”. The “effect on MEK in NRAS mutant cells” value in [10] is recorded as “inhibit rather than activate MEK”. For the same compound, the “activity against RAS mutant cells” value in data set [11] is reported as “also active”. Besides, in data set [12], the “caspase 3 and PARP cleavage (apoptosis)” value was “induce caspase 3 and PARP cleavage”. In addition, the “inhibition of SFKs” value in data set [13] (0.5 µM, Figure S3B) is on record as “also inhibit SFKs”. Moreover, the “inhibition of MEK, ERK, and SRC” value in data set [13] is “inhibit MEK, ERK, and SRC”. Moreover, the “colony formation under continual exposure” value with A375 cells is on record as “no cells are able to grow”. The compound further displayed a bioavailability in [15] (Balb/c, mouse, plasma, po, 10 mg/kg) of approximately 55%. Moreover, the “area under the curve” value in [15] (oral 10 mg/kg/day) is ~416,000 nM.hr. In [15] (oral 10 mg/kg/day, at 24 hr, 10 mg/kg/day), this compound yielded a plasma concentration of approximately 1000 nM. Besides, the PDX growth result in the data set on patient #3 PDX is “tumor regression”. The PDX sensitivity entry in the data set with patient #4 PDX was “sensitive”; in [16] it was “remains sensitive”. In addition, the cell sensitivity entry in the data set with patient #3 tumor cells is on record as “sensitive”. Also, in the data set on SK-Mel 23 cells, the “sensitivity of SK-Mel 23 cells” value was “sensitive”. Also, the “activity against BRAF and NRAS wild-type cancer cells” value in data set [18] is given as “not active”. Also, in data set [19] (CellTiter Glo), the cell line sensitivity result is on record as “sensitive”. In [19] (CellTiter Glo, Figure S3C), the “growth inhibition compared with PLX4720, ARQ736, RAF265, MLN2480” value is “more potently than any of the other inhibitors”.

As for `CCCS(=O)(=O)Nc1ccc(F)c(C(=O)c2c[nH]c3ncc(Cl)cc23)c1F` [PLX4720, reference compound], the “inhibition of ERK and SRC in PDX” value in data set [8] was “does not inhibit ERK or SRC”. Besides, the “caspase 3 and PARP cleavage (apoptosis)” value in data set [12] is “does not”. Besides, in [13], the “inhibition of MEK, ERK, and SRC” value is recorded as “does not”. The PDX growth entry in the data set on patient #3 PDX is on record as “neither does it inhibit the growth”. Moreover, the PDX sensitivity entry in the data set with patient #4 PDX was “resistant”; in [16] it was “resistance”. For the same compound, in the data set with patient #3 tumor cells, the cell sensitivity entry was “not inhibited”. In addition, the xenograft growth result in data set [17] is recorded as “resistant”. In data set [19] (CellTiter Glo), the cell line sensitivity entry was “resistant”.

Consider `C[S+]([O-])c1ccc(-c2nc(-c3ccncc3)c(-c3ccc(F)cc3)[nH]2)cc1` (stereo not drawn) [SB203580], for which the “cooperation with the pan-RAF inhibitors RAF265 or MLN2480” value in [19] (10 µM SB203580 in combination, Figure S3E) is given as “does not cooperate”.

In the case of `COc1cc2ncnc(Nc3ccc(Oc4ccccc4)cc3)c2cc1OC` [SRC inhibitor 1], the “effect in combination with TAK632” value in [19] (40 µM SRC Inhibitor 1 with TAK632, Figure S3D) is reported as “increases the activity of the pan-RAF inhibitor TAK632”. For the same compound, the activity alone result in data set [19] (CellTiter Glo, Figure S3D) is “inactive alone”.

A word on the IC50: it is the concentration needed to halve the response being measured. Read a low IC50 as higher potency. Usually bioavailability stands for the share of a dose that reaches the circulation, judged against a reference dose that is usually intravenous. High values mean much systemic uptake, low ones little systemic uptake.
